Structures are written as SMILES. Active and inactive are the calls of the source. No cut-off for these calls is given here.

The source of these data is ChEMBL document CHEMBL1158838, “Immunosuppressive iridoids from the fruits of Gardenia jasminoides” (J Nat Prod, 2005).

For experiment [1], the system named is T-cell. Nature of the experiment: Immunosuppressive activity against human peripheral blood T cells assessed as inhibition of PMA and anti-CD28 monoclonal antibody-costimulated IL2 secretion at 100 ug/ml by ELISA. Type of experiment: functional, cell-based.
For experiment [2], the system named is T-cell. Nature of the experiment: Immunosuppressive activity against human peripheral blood T cells assessed as inhibition of PMA and anti-CD28 monoclonal antibody-costimulated IL2 secretion at 50 ug/ml by ELISA. The class given is functional, cell-based. (In general: An ELISA detects its analyte on a solid surface through an enzyme-linked reagent.)

With `COC(=O)C1=CO[C@@H](O[C@@H]2O[C@H](CO)[C@@H](O)[C@H](O)[C@H]2O)[C@@H]2C(CO)=C[C@H](O)[C@H]12`, the outcome in the experiment on T-cell [1] and in the experiment with T-cell [2] was Active.
For `C[C@]1(O)C[C@@H](O)[C@@H]2C(C(=O)O)=CO[C@@H](O[C@@H]3O[C@H](CO)[C@@H](O)[C@H](O)[C@H]3O)[C@@H]21`, the outcome in the experiment on T-cell [1] and in the experiment with T-cell [2] was Active.
In the case of `COC(=O)C1=CO[C@@H](O[C@@H]2O[C@H](CO[C@@H]3O[C@H](CO)[C@@H](O)[C@H](O)[C@H]3O)[C@@H](O)[C@H](O)[C@H]2O)[C@@H]2C(CO)=CC[C@H]12`, the outcome in the experiment on T-cell [1] was Active.
As to `COC(=O)C1=CO[C@@H](O[C@@H]2O[C@H](CO)[C@@H](O)[C@H](O)[C@H]2O)[C@@H]2C(CO)=C[C@@H](O)[C@H]12`, in the experiment on T-cell [1], the outcome was Active.
In the case of `C[C@]1(O)C[C@H](O)[C@@H]2C(C=O)=CO[C@@H](O[C@@H]3O[C@H](CO)[C@@H](O)[C@H](O)[C@H]3O)[C@@H]21`, the result with T-cell [1] and in the experiment with T-cell [2] was Active.
With `COC(=O)C1=CO[C@@H](O[C@@H]2O[C@H](CO)[C@@H](O)[C@H](O)[C@H]2O)[C@@H]2C(CO)=CC[C@H]12`, the result in the experiment with T-cell [1] and with T-cell [2] was Active.
